Measurements as given in patent US8889667B2 (Agios Pharmaceuticals, Inc, priority 2010, dated 2014).

target: PKM2 (Homo sapiens, UniProt P14618); experiment: PKM2 Assay (activation, LDH-coupled, absorbance at 340 nm); assay type: biochemical; conditions: Table 4
In short: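 Human PKM2 (50 ng/well) was preincubated with compound and coupling mix for 30 min at 4 °C without ADP. Reactions were then started with ADP (0.7 mM) alongside PEP 0.15 mM, NADH 180 μM and LDH, in Tris pH 7.5/KCl/MgCl2/DTT/BSA buffer. A340 was followed at 25 °C and activation reported as AC50.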

Sequence of PKM2 (P14618 whole entry): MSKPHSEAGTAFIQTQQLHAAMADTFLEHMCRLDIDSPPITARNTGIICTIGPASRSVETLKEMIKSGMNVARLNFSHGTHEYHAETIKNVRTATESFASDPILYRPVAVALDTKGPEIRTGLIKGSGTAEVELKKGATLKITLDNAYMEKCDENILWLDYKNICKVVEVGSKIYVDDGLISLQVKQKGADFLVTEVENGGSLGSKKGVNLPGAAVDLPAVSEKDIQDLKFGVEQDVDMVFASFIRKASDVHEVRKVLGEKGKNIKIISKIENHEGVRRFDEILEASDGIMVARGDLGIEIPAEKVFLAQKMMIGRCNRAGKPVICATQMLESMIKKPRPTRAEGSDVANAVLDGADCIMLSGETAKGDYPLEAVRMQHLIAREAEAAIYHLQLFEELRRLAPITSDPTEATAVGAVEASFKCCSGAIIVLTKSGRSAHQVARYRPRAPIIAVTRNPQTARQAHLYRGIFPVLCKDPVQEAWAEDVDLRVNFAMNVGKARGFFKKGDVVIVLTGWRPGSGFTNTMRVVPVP

| Structure (SMILES) | AC50 [µM] |
| --- | --- |
| C[C@@H]1CN(CC2CC2)CCN1C(=O)c1ccc(NS(=O)(=O)c2cccc3cccnc23)cc1 [Compound 113, (R)—N-(4-(4-(cyclopropylmethyl)-2-methylpiperazine-1-carbonyl)phenyl)quinoline-8-sulfonamide] | < 0.1 |
| C[C@H]1CN(Cc2cc(F)cc(F)c2)CCN1C(=O)c1ccc(NS(=O)(=O)c2cccc3cccnc23)cc1 [Compound 142, (S)—N-(4-(4-(3,5-difluorobenzyl)-2-methylpiperazine-1-carbonyl)phenyl)quinoline-8-sulfonamide] | < 0.1 |
| O=C(c1ccc(NS(=O)(=O)c2cccc3cccnc23)cc1)N1CC2CCC(C1)N2Cc1cc(F)cc(F)c1 [Compound 218, N-(4-(8-(3,5-difluorobenzyl)-3,8-diazabicyclo[3.2.1]octane-3-carbonyl)phenyl)quinoline-8-sulfonamide] | 0.1 to 0.5 |
| CC(C)OC(=O)N1CCN(C(=O)c2ccc(NS(=O)(=O)c3cccc4cccnc34)cc2)[C@H](C)C1 [Compound 110, (R)-Isopropyl 3-methyl-4-(4-(quinoline-8-sulfonamido)benzoyl)piperazine-1-carboxylate] | < 0.1 |
| COc1ccccc1N1C[C@@H](C)N(C(=O)c2ccc(NS(=O)(=O)c3cccc4cccnc34)cc2)[C@@H](C)C1 [Compound 222, N-(4-((2R,6S)-4-(2-methoxyphenyl)-2,6-dimethylpiperazine-1-carbonyl)phenyl)quinoline-8-sulfonamide] | < 0.1 |
| CC(C)OC(=O)N1[C@H](C)CN(C(=O)c2ccc(NS(=O)(=O)c3cccc4cccnc34)cc2)C[C@@H]1C [Compound 106, (2S,6R)-isopropyl 2,6-dimethyl-4-(4-(quinoline-8-sulfonamido)benzoyl)piperazine-1-carboxylate] | 0.1 to 0.5 |
| C[C@@H]1CN(C(=O)OC2CCOCC2)CCN1C(=O)c1ccc(NS(=O)(=O)c2cccc3cccnc23)cc1 [Compound 124, (R)-Tetrahydro-2H-pyran-4-yl-3-methyl-4-(4-(quinoline-8-sulfonamido)benzoyl)piperazine-1-carboxylate] | 0.1 to 0.5 |
| CCOC(=O)N1CCN(C(=O)c2ccc(NS(=O)(=O)c3cccc4cccnc34)cc2)[C@@H](C)C1 [Compound 107, (S)-Ethyl 3-methyl-4-(4-(quinoline-8-sulfonamido)benzoyl)piperazine-1-carboxylate] | 0.5 to 1 |
| CC(c1cc(F)cc(F)c1)N1CCN(C(=O)c2ccc(NS(=O)(=O)c3cccc4cccnc34)cc2)[C@H](C)C1 (stereo partly drawn) [Compound 135, N-(4-((2R)-4-(1-(3,5-difluorophenyl)ethyl)-2-methylpiperazine-1-carbonyl)phenyl)quinoline-8-sulfonamide] | < 0.1 |
| C[C@@H]1CN(Cc2ccc(Cl)c(F)c2)CCN1C(=O)c1ccc(NS(=O)(=O)c2cccc3cccnc23)cc1 [Compound 125, (R)—N-(4-(4-(4-chloro-3-fluorobenzyl)-2-methylpiperazine-1-carbonyl)phenyl)quinoline-8-sulfonamide] | < 0.1 |
| C[C@@H]1CN(C(=O)OCC2CC2)CCN1C(=O)c1ccc(NS(=O)(=O)c2cccc3cccnc23)cc1 [Compound 112, (R)-Cyclopropylmethyl 3-methyl-4-(4-(quinoline-8-sulfonamido)benzoyl)piperazine-1-carboxylate] | < 0.1 |
| CCOC(=O)N1CCN(C(=O)c2ccc(NS(=O)(=O)c3cccc4cccnc34)cc2)[C@H](C)C1 [Compound 109, (R)-Ethyl 3-methyl-4-(4-(quinoline-8-sulfonamido)benzoyl)piperazine-1-carboxylate] | 0.1 to 0.5 |
| C[C@@H]1CN(Cc2c(F)ccc(F)c2F)CCN1C(=O)c1ccc(NS(=O)(=O)c2cccc3cccnc23)cc1 [Compound 132, (R)—N-(4-(2-methyl-4-(2,3,6-trifluorobenzyl)piperazine-1-carbonyl)phenyl)quinoline-8-sulfonamide] | < 0.1 |
| C[C@H]1CN(CC2CCCCC2)CCN1C(=O)c1ccc(NS(=O)(=O)c2cccc3cccnc23)cc1 [Compound 153, (S)—N-(4-(4-(cyclohexylmethyl)-2-methylpiperazine-1-carbonyl)phenyl)quinoline-8-sulfonamide] | 0.1 to 0.5 |
| CC(c1cc(F)c(F)cc1F)N1CCN(C(=O)c2ccc(NS(=O)(=O)c3cccc4cccnc34)cc2)[C@@H](C)C1 (stereo partly drawn) [Compound 174] | 0.1 to 0.5 |
| C[C@H]1CN(C(=O)O[C@@H]2CCOC2)CCN1C(=O)c1ccc(NS(=O)(=O)c2cccc3cccnc23)cc1 [Compound 166] | 0.1 to 0.5 |

same assay, conditions: Table 5

| Structure (SMILES) | AC50 [µM] |
| --- | --- |
| O=C(c1ccc(NS(=O)(=O)c2cccc3cccnc23)c(OC(F)(F)F)c1)N1CCN(CC2CCCC2)CC1 [Compound 336, N-(4-(4-(cyclopentylmethyl)piperazine-1-carbonyl)-2-(trifluoromethoxy)phenyl)quinoline-8-sulfonamide] | 0.5 to 1 |
| O=C(c1ccc(NS(=O)(=O)c2cccc3cccnc23)cc1F)N1CCN(CC2CCCCO2)CC1 (stereo not drawn) [Compound 435, N-(3-fluoro-4-(4-((tetrahydro-2H-pyran-2-yl)methyl)piperazine-1-carbonyl)phenyl)quinoline-8-sulfonamide] | 0.1 to 0.5 |
| O=C(c1ccc(NS(=O)(=O)c2cccc3cccnc23)cc1)N1CCN(Cc2ccc(F)cc2)CC1 [Compound 341, N-(4-(4-(4-fluorobenzyl)piperazine-1-carbonyl)phenyl)quinoline-8-sulfonamide] | < 0.1 |
| O=C(Cc1ccccc1F)N1CCN(C(=O)c2ccc(NS(=O)(=O)c3cccc4cccnc34)c(OC(F)(F)F)c2)CC1 [Compound 361] | 0.5 to 1 |
| O=C(c1ccc(NS(=O)(=O)c2cccc3cccnc23)c(OC(F)(F)F)c1)N1CCN(Cc2ccn[nH]2)CC1 [Compound 382, N-(4-(4-((1H-pyrazol-5-yl)methyl)piperazine-1-carbonyl)-2-(trifluoromethoxy)phenyl)quinoline-8-sulfonamide] | 0.1 to 0.5 |
| COc1cc(C(=O)N2CCN(C(=O)c3cccc(F)c3F)CC2)ccc1NS(=O)(=O)c1cccc2cccnc12 [Compound 318, N-(4-(4-(2,3-difluorobenzoyl)piperazine-1-carbonyl)-2-methoxyphenyl)quinoline-8-sulfonamide] | 0.1 to 0.5 |
| O=C(OC1CCOCC1)N1CCN(C(=O)c2ccc(NS(=O)(=O)c3cccc4cccnc34)c(OC(F)(F)F)c2)CC1 [Compound 314, tetrahydro-2H-pyran-4-yl-4-(4-(quinoline-8-sulfonamido)-3-(trifluoromethoxy)benzoyl)piperazine-1-carboxylate] | 1 to 20 |
| COc1cccc(F)c1CN1CCN(C(=O)c2ccc(NS(=O)(=O)c3cccc4cccnc34)c(OC(F)(F)F)c2)CC1 [Compound 308, N-(4-(4-(2-fluoro-6-methoxybenzyl)piperazine-1-carbonyl)-2-(trifluoromethoxy)phenyl)quinoline-8-sulfonamide] | 0.5 to 1 |
| O=C(c1ccc(NS(=O)(=O)c2cccc3cccnc23)c(OC(F)(F)F)c1)N1CCN(CCc2ccccc2)CC1 [Compound 303, N-(4-(4-phenethylpiperazine-1-carbonyl)-2-(trifluoromethoxy)phenyl)quinoline-8-sulfonamide] | 0.1 to 0.5 |
| COc1cc(C(=O)N2CCN(C(=O)Oc3ccccn3)CC2)ccc1NS(=O)(=O)c1cccc2cccnc12 [Compound 315, Pyridin-2-yl 4-(3-methoxy-4-(quinoline-8-sulfonamido)benzoyl)piperazine-1-carboxylate] | 0.1 to 0.5 |
| COc1cc(NS(=O)(=O)c2cccc3cccnc23)ccc1C(=O)N1CCN(C(C)(C)c2ccccc2)CC1 [Compound 355, N-(3-methoxy-4-(4-(2-phenylpropan-2-yl)piperazine-1-carbonyl)phenyl)quinoline-8-sulfonamide] | < 0.1 |
| O=C(c1ccc(NS(=O)(=O)c2cccc3cccnc23)cc1)N1CCN(C(c2ccccc2)C(F)(F)F)CC1 (stereo not drawn) [Compound 358, N-(4-(4-(2,2,2-trifluoro-1-phenylethyl)piperazine-1-carbonyl)phenyl)quinoline-8-sulfonamide] | < 0.1 |
| O=C(c1ccc(NS(=O)(=O)c2cccc3cccnc23)c(OC(F)(F)F)c1)N1CCN(CC2CCOC2)CC1 (stereo not drawn) [Compound 302, N-(4-(4-((tetrahydrofuran-3-yl)methyl)piperazine-1-carbonyl)-2-(trifluoromethoxy)phenyl)quinoline-8-sulfonamide] | 0.5 to 1 |
| O=C(c1ccc(NS(=O)(=O)c2cccc3cccnc23)c(OC(F)(F)F)c1)N1CCN(C2(c3ccc(F)cc3)CC2)CC1 [Compound 402, N-(4-(4-(1-(4-fluorophenyl)cyclopropyl)piperazine-1-carbonyl)-2-(trifluoromethoxy)phenyl)quinoline-8-sulfonamide] | 0.1 to 0.5 |
| O=C(c1ccc(NS(=O)(=O)c2cccc3cccnc23)cc1F)N1CCN(CC2CC2)CC1 [Compound 424, N-(4-(4-(cyclopropylmethyl)piperazine-1-carbonyl)-3-fluorophenyl)quinoline-8-sulfonamide] | 0.1 to 0.5 |
| O=C(c1ccc(NS(=O)(=O)c2cccc3cccnc23)cc1Cl)N1CCN(CC2CC2)CC1 [Compound 427, N-(3-chloro-4-(4-(cyclopropylmethyl)piperazine-1-carbonyl)phenyl)quinoline-8-sulfonamide] | < 0.1 |
| CC(C)(c1cccc(F)c1)N1CCN(C(=O)c2ccc(NS(=O)(=O)c3cccc4cccnc34)cc2)CC1 [Compound 405] | < 0.1 |
| C[C@H](c1ccccc1)N1CCN(C(=O)c2ccc(NS(=O)(=O)c3cccc4cccnc34)cc2)CC1 [Compound 388, (R)—N-(4-(4-(1-phenylethyl)piperazine-1-carbonyl)phenyl)quinoline-8-sulfonamide] | < 0.1 |
| O=C(O[C@@H]1CCOC1)N1CCN(C(=O)c2ccc(NS(=O)(=O)c3cccc4cccnc34)c(OC(F)(F)F)c2)CC1 [Compound 311] | 1 to 20 |
| CC(c1cccnc1)N1CCN(C(=O)c2ccc(NS(=O)(=O)c3cccc4cccnc34)cc2)CC1 (stereo not drawn) [Compound 370, N-(4-(4-(1-(pyridin-3-yl)ethyl)piperazine-1-carbonyl)phenyl)quinoline-8-sulfonamide] | < 0.1 |
